Laboratory results: patent publication US20170150719A1, “FUNGICIDAL PYRAZOLES AND THEIR MIXTURES” (E I DU PONT DE NEMOURS AND COMPANY, priority 2010, published 2017)
Marks after values point to notes of the source that are not given here.

Tested on: Blumeria graminis f. sp. tritici
Assay: Test I: wheat powdery mildew, preventive spray on wheat seedlings, visual disease rating
Settings: wheat powdery mildew; 100 = 100% disease control, 0 = no disease control relative to the controls

Row | SMILES | Test I rating (disease control)
1 | COc1ccc(-c2c(C)nn(C)c2Oc2ccc(C#N)cc2F)c(Cl)c1 [compound 92] | 96%
2 | COc1ccc(-c2c(C)nn(C)c2Oc2ccc(C#N)cc2Cl)c(Cl)c1 [compound 93] | 91%
3 | Cc1nn(C)c(Nc2ccc(F)cc2Br)c1-c1ccc(F)cc1Br [compound 95] | 100%
4 | Cc1nn(C)c(Nc2ccc(F)cc2Cl)c1-c1ccc(F)cc1Br [compound 96] | 100%
5 | Cc1nn(C)c(Nc2ccc(F)cc2F)c1-c1ccccc1Cl [compound 97] | 100%
6 | Cc1nn(C)c(Nc2c(Cl)cc(F)cc2Cl)c1-c1ccc(F)cc1Br [compound 98] | 96%
7 | COc1ccc(-c2c(C)nn(C)c2Oc2ccc(C#N)cc2Cl)c(Br)c1 [compound 99] | 89%
8 | COc1ccc(-c2c(C)nn(C)c2Oc2ccc(C#N)cc2F)c(Br)c1 [compound 100] | 95%
9 | COc1ccc(Nc2c(-c3ccc(F)cc3Cl)c(C)nn2C)c(Cl)c1 [compound 101] | 100%
10 | COc1ccc(Nc2c(-c3ccc(F)cc3Br)c(C)nn2C)c(Cl)c1 [compound 103] | 99%
11 | CCOc1ccc(Nc2c(-c3ccc(F)cc3Cl)c(C)nn2C)c(Cl)c1 [compound 104] | 99%

Same assay, conditions: wheat powdery mildew; rating marked with asterisk (*), not explained in the text shown

Row | SMILES | Test I rating (disease control), value marked *
12 | COc1cc(Cl)c(Nc2c(-c3ccc(F)cc3Cl)c(C)nn2C)c(Cl)c1 [compound 85] | 99* %
13 | COc1cc(Cl)c(Nc2c(-c3ccc(F)cc3Br)c(C)nn2C)c(Cl)c1 [compound 102] | 95* %

Tested on: Septoria nodorum
Assay: Test E: Septoria glume blotch, preventive spray on wheat seedlings, visual disease rating
Settings: Septoria glume blotch; 100 = 100% disease control, 0 = no disease control relative to the controls

Row | SMILES | Test E rating (disease control)
14 | COc1cc(Cl)c(Nc2c(-c3ccc(F)cc3Cl)c(C)nn2C)c(Cl)c1 [compound 85] | 0%
15 | COc1ccc(-c2c(C)nn(C)c2Oc2ccc(C#N)cc2F)c(Cl)c1 [compound 92] | 99%
16 | COc1ccc(-c2c(C)nn(C)c2Oc2ccc(C#N)cc2Cl)c(Cl)c1 [compound 93] | 60%
17 | Cc1nn(C)c(Nc2ccc(F)cc2Br)c1-c1ccc(F)cc1Br [compound 95] | 51%
18 | Cc1nn(C)c(Nc2ccc(F)cc2Cl)c1-c1ccc(F)cc1Br [compound 96] | 0%
19 | Cc1nn(C)c(Nc2ccc(F)cc2F)c1-c1ccccc1Cl [compound 97] | 0%
20 | Cc1nn(C)c(Nc2c(Cl)cc(F)cc2Cl)c1-c1ccc(F)cc1Br [compound 98] | 0%
21 | COc1ccc(-c2c(C)nn(C)c2Oc2ccc(C#N)cc2Cl)c(Br)c1 [compound 99] | 0%
22 | COc1ccc(-c2c(C)nn(C)c2Oc2ccc(C#N)cc2F)c(Br)c1 [compound 100] | 100%
23 | COc1ccc(Nc2c(-c3ccc(F)cc3Cl)c(C)nn2C)c(Cl)c1 [compound 101] | 0%
24 | COc1cc(Cl)c(Nc2c(-c3ccc(F)cc3Br)c(C)nn2C)c(Cl)c1 [compound 102] | 0%
25 | COc1ccc(Nc2c(-c3ccc(F)cc3Br)c(C)nn2C)c(Cl)c1 [compound 103] | 0%
26 | CCOc1ccc(Nc2c(-c3ccc(F)cc3Cl)c(C)nn2C)c(Cl)c1 [compound 104] | 0%

Tested on: Puccinia recondita f. sp. tritici
Assay: Test G: wheat leaf rust, spray after inoculation (curative) on wheat seedlings, visual disease rating
Format: in vivo
Settings: sprayed after inoculation, 100 = 100% disease control, 0 = no disease control
Source text: (§1) A hyphen (-) indicates no test results.

Row | SMILES | Test G rating (disease control)
27 | COc1cc(Cl)c(Nc2c(-c3ccc(F)cc3Cl)c(C)nn2C)c(Cl)c1 [compound 85] | 0%
28 | COc1ccc(-c2c(C)nn(C)c2Oc2ccc(C#N)cc2F)c(Cl)c1 [compound 92] | 0%
29 | COc1ccc(-c2c(C)nn(C)c2Oc2ccc(C#N)cc2Cl)c(Cl)c1 [compound 93] | 0%
30 | Cc1nn(C)c(Nc2ccc(F)cc2Br)c1-c1ccc(F)cc1Br [compound 95] | 91%
31 | Cc1nn(C)c(Nc2ccc(F)cc2Cl)c1-c1ccc(F)cc1Br [compound 96] | 94%
32 | Cc1nn(C)c(Nc2ccc(F)cc2F)c1-c1ccccc1Cl [compound 97] | 0%
33 | Cc1nn(C)c(Nc2c(Cl)cc(F)cc2Cl)c1-c1ccc(F)cc1Br [compound 98] | 9%
34 | COc1ccc(-c2c(C)nn(C)c2Oc2ccc(C#N)cc2Cl)c(Br)c1 [compound 99] | 0%
35 | COc1ccc(-c2c(C)nn(C)c2Oc2ccc(C#N)cc2F)c(Br)c1 [compound 100] | 0%
36 | COc1ccc(Nc2c(-c3ccc(F)cc3Cl)c(C)nn2C)c(Cl)c1 [compound 101] | 99%
37 | COc1cc(Cl)c(Nc2c(-c3ccc(F)cc3Br)c(C)nn2C)c(Cl)c1 [compound 102] | 0%
38 | COc1ccc(Nc2c(-c3ccc(F)cc3Br)c(C)nn2C)c(Cl)c1 [compound 103] | 63%
39 | CCOc1ccc(Nc2c(-c3ccc(F)cc3Cl)c(C)nn2C)c(Cl)c1 [compound 104] | 0%

Tested on: Alternaria solani
Assay: Test B: tomato early blight, preventive spray on tomato seedlings, visual disease rating
Settings: tomato early blight; 100 = 100% disease control, 0 = no disease control relative to the controls

Row | SMILES | Test B rating (disease control)
40 | COc1cc(Cl)c(Nc2c(-c3ccc(F)cc3Cl)c(C)nn2C)c(Cl)c1 [compound 85] | 0%
41 | COc1ccc(-c2c(C)nn(C)c2Oc2ccc(C#N)cc2F)c(Cl)c1 [compound 92] | 99%
42 | COc1ccc(-c2c(C)nn(C)c2Oc2ccc(C#N)cc2Cl)c(Cl)c1 [compound 93] | 0%
43 | Cc1nn(C)c(Nc2ccc(F)cc2Br)c1-c1ccc(F)cc1Br [compound 95] | 97%
44 | Cc1nn(C)c(Nc2ccc(F)cc2Cl)c1-c1ccc(F)cc1Br [compound 96] | 95%
45 | Cc1nn(C)c(Nc2ccc(F)cc2F)c1-c1ccccc1Cl [compound 97] | 99%
46 | Cc1nn(C)c(Nc2c(Cl)cc(F)cc2Cl)c1-c1ccc(F)cc1Br [compound 98] | 0%
47 | COc1ccc(-c2c(C)nn(C)c2Oc2ccc(C#N)cc2Cl)c(Br)c1 [compound 99] | 0%
48 | COc1ccc(-c2c(C)nn(C)c2Oc2ccc(C#N)cc2F)c(Br)c1 [compound 100] | 88%
49 | COc1ccc(Nc2c(-c3ccc(F)cc3Cl)c(C)nn2C)c(Cl)c1 [compound 101] | 93%
50 | COc1cc(Cl)c(Nc2c(-c3ccc(F)cc3Br)c(C)nn2C)c(Cl)c1 [compound 102] | 0%
51 | COc1ccc(Nc2c(-c3ccc(F)cc3Br)c(C)nn2C)c(Cl)c1 [compound 103] | 83%
52 | CCOc1ccc(Nc2c(-c3ccc(F)cc3Cl)c(C)nn2C)c(Cl)c1 [compound 104] | 0%

Tested on: Septoria tritici
Assay: Test F: wheat leaf blotch, preventive spray on wheat seedlings, visual disease rating
Format: in vivo
Settings: 100 = 100% disease control, 0 = no disease control relative to the controls
Source text: as §1

Row | SMILES | Test F rating (disease control)
53 | COc1cc(Cl)c(Nc2c(-c3ccc(F)cc3Cl)c(C)nn2C)c(Cl)c1 [compound 85] | 100%
54 | COc1ccc(-c2c(C)nn(C)c2Oc2ccc(C#N)cc2F)c(Cl)c1 [compound 92] | 100%
55 | COc1ccc(-c2c(C)nn(C)c2Oc2ccc(C#N)cc2Cl)c(Cl)c1 [compound 93] | 100%
56 | Cc1nn(C)c(Nc2ccc(F)cc2Br)c1-c1ccc(F)cc1Br [compound 95] | 100%
57 | Cc1nn(C)c(Nc2ccc(F)cc2Cl)c1-c1ccc(F)cc1Br [compound 96] | 100%
58 | Cc1nn(C)c(Nc2ccc(F)cc2F)c1-c1ccccc1Cl [compound 97] | 100%
59 | Cc1nn(C)c(Nc2c(Cl)cc(F)cc2Cl)c1-c1ccc(F)cc1Br [compound 98] | 99%
60 | COc1ccc(-c2c(C)nn(C)c2Oc2ccc(C#N)cc2Cl)c(Br)c1 [compound 99] | 100%
61 | COc1ccc(-c2c(C)nn(C)c2Oc2ccc(C#N)cc2F)c(Br)c1 [compound 100] | 100%
62 | COc1ccc(Nc2c(-c3ccc(F)cc3Cl)c(C)nn2C)c(Cl)c1 [compound 101] | 100%
63 | COc1cc(Cl)c(Nc2c(-c3ccc(F)cc3Br)c(C)nn2C)c(Cl)c1 [compound 102] | 98%
64 | COc1ccc(Nc2c(-c3ccc(F)cc3Br)c(C)nn2C)c(Cl)c1 [compound 103] | 100%
65 | CCOc1ccc(Nc2c(-c3ccc(F)cc3Cl)c(C)nn2C)c(Cl)c1 [compound 104] | 100%

Tested on: Puccinia recondita f. sp. tritici
Assay: Test H: wheat leaf rust, preventive spray on wheat seedlings, visual disease rating
Settings: wheat leaf rust, sprayed the day before inoculation; 100 = 100% disease control, 0 = no disease control

Row | SMILES | Test H rating (disease control)
66 | COc1cc(Cl)c(Nc2c(-c3ccc(F)cc3Cl)c(C)nn2C)c(Cl)c1 [compound 85] | 99%
67 | COc1ccc(-c2c(C)nn(C)c2Oc2ccc(C#N)cc2F)c(Cl)c1 [compound 92] | 99%
68 | COc1ccc(-c2c(C)nn(C)c2Oc2ccc(C#N)cc2Cl)c(Cl)c1 [compound 93] | 99%
69 | Cc1nn(C)c(Nc2ccc(F)cc2Br)c1-c1ccc(F)cc1Br [compound 95] | 100%
70 | Cc1nn(C)c(Nc2ccc(F)cc2Cl)c1-c1ccc(F)cc1Br [compound 96] | 100%
71 | Cc1nn(C)c(Nc2ccc(F)cc2F)c1-c1ccccc1Cl [compound 97] | 96%
72 | Cc1nn(C)c(Nc2c(Cl)cc(F)cc2Cl)c1-c1ccc(F)cc1Br [compound 98] | 99%
73 | COc1ccc(-c2c(C)nn(C)c2Oc2ccc(C#N)cc2Cl)c(Br)c1 [compound 99] | 97%
74 | COc1ccc(-c2c(C)nn(C)c2Oc2ccc(C#N)cc2F)c(Br)c1 [compound 100] | 99%
75 | COc1ccc(Nc2c(-c3ccc(F)cc3Cl)c(C)nn2C)c(Cl)c1 [compound 101] | 100%
76 | COc1cc(Cl)c(Nc2c(-c3ccc(F)cc3Br)c(C)nn2C)c(Cl)c1 [compound 102] | 94%
77 | COc1ccc(Nc2c(-c3ccc(F)cc3Br)c(C)nn2C)c(Cl)c1 [compound 103] | 99%
78 | CCOc1ccc(Nc2c(-c3ccc(F)cc3Cl)c(C)nn2C)c(Cl)c1 [compound 104] | 97%

Tested on: Botrytis cinerea
Assay: Test A: tomato Botrytis, preventive spray on tomato seedlings, visual disease rating
Settings: tomato Botrytis; 100 = 100% disease control, 0 = no disease control relative to the controls

Row | SMILES | Test A rating (disease control)
79 | COc1cc(Cl)c(Nc2c(-c3ccc(F)cc3Cl)c(C)nn2C)c(Cl)c1 [compound 85] | 99%
80 | COc1ccc(-c2c(C)nn(C)c2Oc2ccc(C#N)cc2F)c(Cl)c1 [compound 92] | 100%
81 | COc1ccc(-c2c(C)nn(C)c2Oc2ccc(C#N)cc2Cl)c(Cl)c1 [compound 93] | 100%
82 | Cc1nn(C)c(Nc2ccc(F)cc2Br)c1-c1ccc(F)cc1Br [compound 95] | 100%
83 | Cc1nn(C)c(Nc2ccc(F)cc2Cl)c1-c1ccc(F)cc1Br [compound 96] | 100%
84 | Cc1nn(C)c(Nc2ccc(F)cc2F)c1-c1ccccc1Cl [compound 97] | 99%
85 | Cc1nn(C)c(Nc2c(Cl)cc(F)cc2Cl)c1-c1ccc(F)cc1Br [compound 98] | 99%
86 | COc1ccc(-c2c(C)nn(C)c2Oc2ccc(C#N)cc2Cl)c(Br)c1 [compound 99] | 99%
87 | COc1ccc(-c2c(C)nn(C)c2Oc2ccc(C#N)cc2F)c(Br)c1 [compound 100] | 92%
88 | COc1ccc(Nc2c(-c3ccc(F)cc3Cl)c(C)nn2C)c(Cl)c1 [compound 101] | 100%
89 | COc1cc(Cl)c(Nc2c(-c3ccc(F)cc3Br)c(C)nn2C)c(Cl)c1 [compound 102] | 98%
90 | COc1ccc(Nc2c(-c3ccc(F)cc3Br)c(C)nn2C)c(Cl)c1 [compound 103] | 99%
91 | CCOc1ccc(Nc2c(-c3ccc(F)cc3Cl)c(C)nn2C)c(Cl)c1 [compound 104] | 100%
